We go through four compounds from ChEMBL document CHEMBL1806349, “Improved performance by replacing iminodiacetic residues with glyceryl residues in symmetrically branched oligoglycerols” (Bioorg Med Chem Lett, 2011).

Data set [1] in a line: AUC (0 to 24 hrs) in iv dosed Crl:CD(SD) rat. Format: ADME, organism-based. Details: time < 24 hr, route intravenous. Particulars: plasma.
Data set [2] is described as follows: Solubility of the compound in water. Format: physicochemical.

Each structure is given as a SMILES string. Converted amounts (≈) assume the structure as drawn.

For `CCCCCCCCCCCCCCCCCC(=O)OCC(CO[P+]([O-])(O)OCCNC(=O)CCC(=O)N(CC(=O)NC(COC(COC(CO)CO)COC(CO)CO)COC(COC(CO)CO)COC(CO)CO)CC(=O)NC(COC(COC(CO)CO)COC(CO)CO)COC(COC(CO)CO)COC(CO)CO)OC(=O)CCCCCCCCCCCCCCCCC` (centres undefined), the AUC(0-t) (commonly exposure summed from dosing to a finite time, without extrapolation to infinity) at 24 h in data set [1] was 95100 ng·h/mL. Take `O=C(CCC(=O)NC(COC(CO)CO)COC(CO)CO)NCCCCCCCCNC(=O)c1ccccc1`: the solubility – broadly, the dissolved amount per volume that the medium holds – in data set [2] was found to be 350 mM (≈ 199 mg/mL). Still for that read-out and setting: the result for `O=C(CCC(=O)N(CC(=O)NC(CO)CO)CC(=O)NC(CO)CO)NCCCCCCCCNC(=O)c1ccccc1` reads 21 mM (≈ 12.8 mg/mL). As to `CCCCCCCCCCCCCCCCCC(=O)OCC(CO[P+]([O-])(O)OCCNC(=O)CCC(=O)N(CC(=O)N(CC(=O)NC(COC(CO)CO)COC(CO)CO)CC(=O)NC(COC(CO)CO)COC(CO)CO)CC(=O)N(CC(=O)NC(COC(CO)CO)COC(CO)CO)CC(=O)NC(COC(CO)CO)COC(CO)CO)OC(=O)CCCCCCCCCCCCCCCCC` (centres undefined), the AUC(0-t) at 24 h in data set [1] was 53100 ng·h/mL.
